Reference: patent US20230304058A1, “NOVEL 5'CAP ANALOG HAVING CAP2 STRUCTURE AND PREPARATION METHOD THEREFOR” (Shenzhen Rhegen Biotechnology Co., Ltd., priority 2020, published 2023)

How the values were obtained:
mRNA = mRNA capping rate by RNase H cleavage and LC-MS; assay type: biochemical; details: ratio of capped and uncapped mRNA
Source text: The mRNA molecules with different Cap structures obtained in Example 1 were subjected to enzymatic cleavage, and the ratio of capped and uncapped mRNA molecules could be determined in a liquid chromatography-mass spectrometry analysis experiment.
1. Concentrate the beads using a magnet, aspirate the supernatant storage solution, and add an equal volume of 0.1 M NaOH +0.05 M NaCl;
2. Aspirate the supernatant and resuspend the beads with an equal volume of 0.1 M NaCl, keep the concentration constant;
3. Anneal mRNA and cleavage tags, configure the following reaction system;
Gradient annealing: 95° C. 5 min
4. Combining cleavage tags with beads • Beads were centrifuged at 15,000 g for 5 min, and the supernatant was removed, then 120 μl of annealed mRNA and tags were added and incubated for 30 min at room temperature, during which time they were gently shaken to ensure adequate binding.
5. Enzyme cleavage using RNase H; • Add 10 μl RNase H and incubate at 37° C. for 3 h. Precipitate the beads with magnet and discard the supernatant. • Add 100 μl washing buffer, mix thoroughly, magnet precipitate for 2 min, and discard the supernatant. Repeat 3 times. • Wash with DI water for 3 times.
6. Hydrolysis with RppH; • Use 10 units RppH in nebuffer 2 to hydrolyze at room temperature for 1 h.
DI water was aspirated, 100 μl of 75% ethanol preheated to 80° C. was added, incubat for 3 min, and magnet precipitat for 3 min. The supernatant was taken, followed by evaporating, and centrifuge for 45 min to a volume of 10 μl. Finally, the sample was resuspended in 50 μl of […] EDTA/1% MeOH and left for LC-MS analysis.
9. the mRNA capping rate of different Cap analogs synthesized was analyzed with LC-MS.

T7 Enzyme Mix = T7 Enzyme Mix (Escherichia phage T7, UniProt P00573); assay: In vitro transcription mRNA synthesis with cap analog, reaction yield; assay type: biochemical; details: per ml transcription reaction system; 37° C. for 6 h; LiCl purification
Chain of T7 Enzyme Mix (P00573 whole entry): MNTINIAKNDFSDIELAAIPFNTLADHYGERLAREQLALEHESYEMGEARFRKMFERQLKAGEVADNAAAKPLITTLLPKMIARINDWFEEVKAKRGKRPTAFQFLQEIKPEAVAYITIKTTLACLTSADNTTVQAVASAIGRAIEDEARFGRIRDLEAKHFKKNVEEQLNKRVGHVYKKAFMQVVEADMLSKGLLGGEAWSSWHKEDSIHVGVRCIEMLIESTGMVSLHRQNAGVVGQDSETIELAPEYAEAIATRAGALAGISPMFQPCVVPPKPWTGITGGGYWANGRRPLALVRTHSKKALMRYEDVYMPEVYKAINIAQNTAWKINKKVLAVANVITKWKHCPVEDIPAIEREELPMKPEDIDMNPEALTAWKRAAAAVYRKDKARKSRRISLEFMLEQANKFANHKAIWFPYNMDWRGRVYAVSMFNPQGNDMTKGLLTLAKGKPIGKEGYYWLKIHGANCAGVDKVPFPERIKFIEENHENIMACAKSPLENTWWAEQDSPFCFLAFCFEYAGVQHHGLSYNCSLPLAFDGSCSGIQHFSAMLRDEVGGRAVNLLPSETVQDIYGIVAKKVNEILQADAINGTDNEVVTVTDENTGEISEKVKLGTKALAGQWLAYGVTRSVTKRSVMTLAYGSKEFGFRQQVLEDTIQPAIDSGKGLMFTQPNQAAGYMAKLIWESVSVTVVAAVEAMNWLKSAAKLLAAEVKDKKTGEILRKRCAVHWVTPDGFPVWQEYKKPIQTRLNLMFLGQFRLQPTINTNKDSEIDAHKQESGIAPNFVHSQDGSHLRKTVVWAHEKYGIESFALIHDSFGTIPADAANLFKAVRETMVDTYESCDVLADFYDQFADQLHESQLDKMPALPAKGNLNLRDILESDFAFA
Experimental: 1. Before synthesizing mRNA, linearize the plasmid with Notl, digested at […] overnight;
2. Extract with DNA template;
React at 37° C. for 6 h. Digest with TURBO DNase for 15 min.
4. Purify the transcription products using LiCl solution and calculate the reaction yields.

[1] = tested on: TLR3, TLR7, TLR8 and RIG-1; assay: Intracellular immunogenicity of capped mRNA by RNA immunoprecipitation and quantitative PCR; assay type: cell-based; details: relative to ARCA; Human-derived PBMC cells, 5 μg mRNA, Lipofectamine 2000, 24 h
Experimental: Experimental methods: the intracellular immunoproteins TLR3, TLR7, TLR8 and RIG-1 were immunoprecipitated together with their bound RNAs by RNA immunoprecipitation, and finally these mRNAs were identified by real-time quantitative PCR, and their relative abundance was proportional to their immunogenicity.
The cells were collected by trypsin digestion 24 h later and resuspended in PBS, centrifuged, and collected.
Fixative was added to the cells, and after 15 minutes glycine was added for termination of fixation, followed by centrifugation to collect the cells. Cells were resuspended by adding lysate, incubated on ice at 4° C. for 30 min, centrifuged at 2400 g for 10 min, and the supernatant was collected.
TLR3, TLR7, TLR8 and RIG-1 antibodies (2-10 μg) were added to the supernatant (6-10 mg) followed by gentle incubation at 4° C. for 2 hours. Protein AIG beads (40 μL) were then added to them and incubated gently for 1 h at 4° C.
Centrifuge at 2500 rpm for 30 seconds with precipitated magnetic beads and remove the supernatant. Resuspend the beads in 500 μL of RIP buffer. Wash in RIP buffer a total of three times, followed by one wash in PBS.
Resuspend magnetic beads in TRIzol RNA Extraction Reagent (1 mL) and isolate co-precipitated RNA, and then elute RNA using nuclease-free water (20 μL).
6. Reverse transcribe (RT) the RNA into cDNA and design primers according to the mRNA sequence for quantitative PCR analysis. mRNA immunogenicity is proportional to the number of mRNA copies precipitated by magnetic beads.

Compound: CO[C@@H]1[C@H](O)[C@@H](COP(=O)(O)O[C@H]2[C@@H](OC)[C@H](n3cnc4c(=O)[nH]c(N)nc43)O[C@@H]2COP(=O)(O)OP(=O)(O)OP(=O)([O-])OC[C@H]2O[C@@H](n3c[n+](C)c4c(=O)[nH]c(N)nc43)[C@H](O)[C@@H]2OC)O[C@H]1n1cnc2c(=O)[nH]c(N)nc21 [Cap analog 18, 3-O-Me-m7G(5′)ppp(5′)(2′OMeG)p(2′OMeG)]
- mRNA capping rates when using different Cap structures (mRNA): 94.98%
- Mass of final product obtained from 1 ml mRNA synthesis reaction system (T7 Enzyme Mix): 4.1 mg
- Intracellular immunogenicity of mRNA when using different Cap structures [1]: 0.31

Compound: CO[C@@H]1[C@H](OP(=O)(O)OC[C@H]2O[C@@H](n3cnc4c(=O)[nH]c(N)nc43)[C@H](OC)[C@@H]2O)[C@@H](COP(=O)(O)OP(=O)(O)OP(=O)([O-])OC[C@H]2O[C@@H](n3c[n+](C)c4c(=O)[nH]c(N)nc43)[C@H](O)[C@@H]2O)O[C@H]1n1ccc(N)nc1=O [Cap analog 3, m7G(5′)ppp(5′)(2′OMeC)p(2′OMeG)]
- mRNA capping rates when using different Cap structures (mRNA): 94.82%
- Mass of final product obtained from 1 ml mRNA synthesis reaction system (T7 Enzyme Mix): 5.8 mg
- Intracellular immunogenicity of mRNA when using different Cap structures [1]: 0.28

Compound: CO[C@@H]1[C@H](O)[C@@H](COP(=O)(O)O[C@H]2[C@@H](OC)[C@H](n3ccc(=O)[nH]c3=O)O[C@@H]2COP(=O)(O)OP(=O)(O)OP(=O)([O-])OC[C@H]2O[C@@H](n3c[n+](C)c4c(=O)[nH]c(N)nc43)[C@H](O)[C@@H]2O)O[C@H]1n1ccc(=O)[nH]c1=O [Cap analog 16, m7G(5′)ppp(5′)(2′OMeU)p(2′OMeU)]
- mRNA capping rates when using different Cap structures (mRNA): 94.84%
- Mass of final product obtained from 1 ml mRNA synthesis reaction system (T7 Enzyme Mix): 4.2 mg
- Intracellular immunogenicity of mRNA when using different Cap structures [1]: 0.48

Compound: CO[C@@H]1[C@H](O)[C@@H](COP(=O)(O)O[C@H]2[C@@H](OC)[C@H](n3ccc(N)nc3=O)O[C@@H]2COP(=O)(O)OP(=O)(O)OP(=O)([O-])OC[C@H]2O[C@@H](n3c[n+](C)c4c(=O)[nH]c(N)nc43)[C@H](O)[C@@H]2O)O[C@H]1n1ccc(=O)[nH]c1=O [Cap analog 15, m7G(5′)ppp(5′)(2′OMeC)p(2′OMeU)]
- mRNA capping rates when using different Cap structures (mRNA): 94.83%
- Mass of final product obtained from 1 ml mRNA synthesis reaction system (T7 Enzyme Mix): 4.6 mg
- Intracellular immunogenicity of mRNA when using different Cap structures [1]: 0.34

Compound: CO[C@@H]1[C@H](O)[C@@H](COP(=O)(O)O[C@H]2[C@@H](OC)[C@H](n3cnc4c(N)ncnc43)O[C@@H]2COP(=O)(O)OP(=O)(O)OP(=O)([O-])OC[C@H]2O[C@@H](n3c[n+](C)c4c(=O)[nH]c(N)nc43)[C@H](O)[C@@H]2OC)O[C@H]1n1cnc2c(=O)[nH]c(N)nc21 [Cap analog 17, 3-O-Me-m7G(5′)ppp(5′)(2′OMeA)p(2′OMeG)]
- mRNA capping rates when using different Cap structures (mRNA): 94.91%
- Mass of final product obtained from 1 ml mRNA synthesis reaction system (T7 Enzyme Mix): 4.7 mg
- Intracellular immunogenicity of mRNA when using different Cap structures [1]: 0.44

Compound: CO[C@@H]1[C@H](O)[C@@H](COP(=O)(O)O[C@H]2[C@@H](OC)[C@H](n3ccc(=O)[nH]c3=O)O[C@@H]2COP(=O)(O)OP(=O)(O)OP(=O)([O-])OC[C@H]2O[C@@H](n3c[n+](C)c4c(=O)[nH]c(N)nc43)[C@H](O)[C@@H]2OC)O[C@H]1n1ccc(=O)[nH]c1=O [Cap analog 32, 3-O-Me-m7G(5′)ppp(5′)(2′OMeU)p(2′OMeU)]
- mRNA capping rates when using different Cap structures (mRNA): 94.66%
- Mass of final product obtained from 1 ml mRNA synthesis reaction system (T7 Enzyme Mix): 4.3 mg
- Intracellular immunogenicity of mRNA when using different Cap structures [1]: 0.3

Compound: CO[C@@H]1[C@H](O)[C@@H](COP(=O)(O)O[C@H]2[C@@H](OC)[C@H](n3ccc(=O)[nH]c3=O)O[C@@H]2COP(=O)(O)OP(=O)(O)OP(=O)([O-])OC[C@H]2O[C@@H](n3c[n+](C)c4c(=O)[nH]c(N)nc43)[C@H](O)[C@@H]2OC)O[C@H]1n1ccc(N)nc1=O [Cap analog 28, 3-O-Me-m7G(5′)ppp(5′)(2′OMeU)p(2′OMeC)]
- mRNA capping rates when using different Cap structures (mRNA): 94.62%
- Mass of final product obtained from 1 ml mRNA synthesis reaction system (T7 Enzyme Mix): 4.8 mg
- Intracellular immunogenicity of mRNA when using different Cap structures [1]: 0.52

Compound: CO[C@@H]1[C@H](O)[C@@H](COP(=O)(O)O[C@H]2[C@@H](OC)[C@H](n3cnc4c(=O)[nH]c(N)nc43)O[C@@H]2COP(=O)(O)OP(=O)(O)OP(=O)([O-])OC[C@H]2O[C@@H](n3c[n+](C)c4c(=O)[nH]c(N)nc43)[C@H](O)[C@@H]2O)O[C@H]1n1cnc2c(N)ncnc21 [Cap analog 6, m7G(5′)ppp(5′)(2′OMeG)p(2′OMeA)]
- mRNA capping rates when using different Cap structures (mRNA): 94.65%
- Mass of final product obtained from 1 ml mRNA synthesis reaction system (T7 Enzyme Mix): 5.1 mg
- Intracellular immunogenicity of mRNA when using different Cap structures [1]: 0.38

Compound: CO[C@@H]1[C@H](O)[C@@H](COP(=O)(O)O[C@H]2[C@@H](OC)[C@H](n3cnc4c(N)ncnc43)O[C@@H]2COP(=O)(O)OP(=O)(O)OP(=O)([O-])OC[C@H]2O[C@@H](n3c[n+](C)c4c(=O)[nH]c(N)nc43)[C@H](O)[C@@H]2O)O[C@H]1n1ccc(N)nc1=O [Cap analog 9, m7G(5′)ppp(5′)(2′OMeA)p(2′OMeC)]
- mRNA capping rates when using different Cap structures (mRNA): 94.73%
- Mass of final product obtained from 1 ml mRNA synthesis reaction system (T7 Enzyme Mix): 4.8 mg
- Intracellular immunogenicity of mRNA when using different Cap structures [1]: 0.4

Compound: CO[C@@H]1[C@H](OP(=O)(O)OC[C@H]2O[C@@H](n3cnc4c(=O)[nH]c(N)nc43)[C@H](OC)[C@@H]2O)[C@@H](COP(=O)(O)OP(=O)(O)OP(=O)([O-])OC[C@H]2O[C@@H](n3c[n+](C)c4c(=O)[nH]c(N)nc43)[C@H](O)[C@@H]2OC)O[C@H]1n1ccc(=O)[nH]c1=O [Cap analog 20, 3-O-Me-m7G(5′)ppp(5′)(2′OMeU)p(2′OMeG)]
- mRNA capping rates when using different Cap structures (mRNA): 94.42%
- Mass of final product obtained from 1 ml mRNA synthesis reaction system (T7 Enzyme Mix): 4.6 mg
- Intracellular immunogenicity of mRNA when using different Cap structures [1]: 0.51

Compound: CO[C@@H]1[C@H](O)[C@@H](COP(=O)(O)O[C@H]2[C@@H](OC)[C@H](n3cnc4c(=O)[nH]c(N)nc43)O[C@@H]2COP(=O)(O)OP(=O)(O)OP(=O)([O-])OC[C@H]2O[C@@H](n3c[n+](C)c4c(=O)[nH]c(N)nc43)[C@H](O)[C@@H]2O)O[C@H]1n1ccc(=O)[nH]c1=O [Cap analog 14, m7G(5′)ppp(5′)(2′OMeG)p(2′OMeU)]
- mRNA capping rates when using different Cap structures (mRNA): 94.82%
- Mass of final product obtained from 1 ml mRNA synthesis reaction system (T7 Enzyme Mix): 5.5 mg
- Intracellular immunogenicity of mRNA when using different Cap structures [1]: 0.35

Compound: CO[C@@H]1[C@H](O)[C@@H](COP(=O)(O)O[C@H]2[C@@H](OC)[C@H](n3ccc(N)nc3=O)O[C@@H]2COP(=O)(O)OP(=O)(O)OP(=O)([O-])OC[C@H]2O[C@@H](n3c[n+](C)c4c(=O)[nH]c(N)nc43)[C@H](O)[C@@H]2OC)O[C@H]1n1ccc(=O)[nH]c1=O [Cap analog 31, 3-O-Me-m7G(5′)ppp(5′)(2′OMeC)p(2′OMeU)]
- mRNA capping rates when using different Cap structures (mRNA): 94.7%
- Mass of final product obtained from 1 ml mRNA synthesis reaction system (T7 Enzyme Mix): 4.5 mg
- Intracellular immunogenicity of mRNA when using different Cap structures [1]: 0.4
